Tests used:
[1] = biological target: T1, Human Indoleamine 2,3-dioxygenase (IDO) (Homo sapiens, UniProt P14902); assay: Human IDO enzymatic assay (kynurenine level); type: biochemical; details: 6 nM IDO, 10 μM L-Trp; geometric mean; read-out: IDO1 GMean: IC50 (μM) (Biochemical Assay)
T1 construct: His tag (N); made in house; host or cells: E. coli
Summary of the method: (§1)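 Reactions were stopped with TCA, converting N-formylkynurenine to kynurenine for quantitation, with IC50 by nonlinear regression. IDO: 6 nM enzyme, 10 μM L-Trp, 20 min RT. TDO: 1 nM enzyme, 350 μM L-Trp, 70 min RT, both in pH 6.5 buffer.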

[2] = biological target: T2, human IDO (IDO1-expressing HEK293 cells) (Homo sapiens, UniProt P14902); assay: Cell based kynurenine assay, IDO1-expressing HEK293 cell clones; details: IDO1-expressing HEK293 cells, 24 hours incubation; geometric mean; read-out: HEK293 IDO1 Kynurenine GMean IC50 (μM) (Cellular Assay)
T2 construct: expressed in transfected cells
T2 sequence (P14902 whole entry): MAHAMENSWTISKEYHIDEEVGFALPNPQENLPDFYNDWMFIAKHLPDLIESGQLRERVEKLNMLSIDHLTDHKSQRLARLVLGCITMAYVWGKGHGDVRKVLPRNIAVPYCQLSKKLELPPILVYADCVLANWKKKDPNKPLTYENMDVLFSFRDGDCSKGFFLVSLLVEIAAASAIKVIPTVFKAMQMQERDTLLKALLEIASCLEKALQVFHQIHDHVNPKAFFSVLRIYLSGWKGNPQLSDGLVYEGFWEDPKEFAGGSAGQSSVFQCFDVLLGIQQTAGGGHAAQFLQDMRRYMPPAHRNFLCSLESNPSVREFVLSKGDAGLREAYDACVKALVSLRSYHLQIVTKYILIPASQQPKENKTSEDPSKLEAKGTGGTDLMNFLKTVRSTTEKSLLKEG
Description: (§2) Determine Inhibitor Activity Against IDO or TDO in Cell Based Kynurenine Assay
(§3) IDO1-expressing or TDO-expressing HEK293 cell clones are generated upon stable transfection of plasmids expressing human IDO or human TDO under the control of CMV promoter. Cells are selected in DMEM media supplemented with 10% fetal bovine serum and 1 mg/ml G418 at 37° C. in a humidified incubator supplied with 5% CO2. The assays are performed as follows.
(§4) Cells were seeded in a 96 well plate in 50 μL of culture media at a density of 2.5×10^4 per well. Serial dilutions of compounds (in total volume of 50 μL culture media) are added into cells. 4 wells containing 0.2% DMSO treated cells serve as high controls and 4 wells containing media only with 0.2% DMSO serve as low controls. After 24 hours of incubation, the supernatant was transferred to a 384 well reaction plate and the kynurenine level determined. The percentage inhibition at individual concentrations relative to high and low controls is calculated. The data is analyzed by using nonlinear regression to generate IC50 values.

[3] = biological target: T3, human TDO (TDO-expressing HEK293 cells) (Homo sapiens, UniProt P48775); assay: Cell based kynurenine assay, TDO-expressing HEK293 cell clones; details: TDO-expressing HEK293 cells, 24 hours incubation; geometric mean; read-out: HEK293 TDO Kynurenine GMean IC50 (μM) (Cellular Assay)
T3 construct: expressed in transfected cells
T3 sequence (P48775 whole entry): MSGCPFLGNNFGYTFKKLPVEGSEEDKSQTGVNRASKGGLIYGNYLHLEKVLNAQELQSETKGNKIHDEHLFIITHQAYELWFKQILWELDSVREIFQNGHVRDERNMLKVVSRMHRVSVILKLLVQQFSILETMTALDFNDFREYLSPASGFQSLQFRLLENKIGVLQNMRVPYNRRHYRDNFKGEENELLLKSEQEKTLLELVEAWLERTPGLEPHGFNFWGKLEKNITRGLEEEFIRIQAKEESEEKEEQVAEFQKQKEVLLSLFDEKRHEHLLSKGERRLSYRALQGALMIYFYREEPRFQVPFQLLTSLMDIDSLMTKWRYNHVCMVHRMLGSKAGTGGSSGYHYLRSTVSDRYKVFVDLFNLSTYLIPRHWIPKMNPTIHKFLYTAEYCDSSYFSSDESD
Description: as §2, §3, §4

[4] = biological target: T4, Human Tryptophan 2,3-dioxygenase (TDO) (Homo sapiens, UniProt P48775); assay: Human TDO enzymatic assay (kynurenine level); type: biochemical; details: 1 nM TDO, 350 μM L-Trp; geometric mean; read-out: TDO GMean: IC50 (μM) (Biochemical Assay)
T4 construct: His tag (N); made in house; host or cells: E. coli
T4 sequence (P48775 whole entry): as above
Summary of the method: as §1

T1 sequence (P14902 whole entry): as the sequence (P14902 whole entry) above

Structure (SMILES)	IC50 [1] [µM]	IC50 [2] [µM]	IC50 [3] [µM]	IC50 [4] [µM]
CS(=O)(=O)N1CC2(C1)CC(O)(c1cc(Cl)cc3cn[nH]c13)C2 [Compound P-0028, 6-(5-chloro-1H-indazol-7-yl)-2-(methylsulfonyl)-2-azaspiro[3.3]heptan-6-ol]	10 to 100	> 10	0.0001 to 10	0.0001 to 10
CC1(C(O)c2cc(F)cc3cn[nH]c23)CCCCC1 (stereo not drawn) [Compound P-0041, (5-fluoro-1H-indazol-7-yl)(1-methylcyclohexyl)methanol]	0.0001 to 10	0.0001 to 10	0.0001 to 10	0.0001 to 10
OC(c1cc(F)cc2cn[nH]c12)C1CCCCC1 (stereo not drawn) [Compound P-0042, cyclohexyl(5-fluoro-1H-indazol-7-yl)methanol]	0.0001 to 10	0.0001 to 10	0.0001 to 10	0.0001 to 10
OC(c1cc(F)cc2cn[nH]c12)C12CC3CC(CC(C3)C1)C2 (stereo not drawn) [Compound P-0043, adamantan-1-yl(5-fluoro-1H-indazol-7-yl)methanol]	0.0001 to 10	0.0001 to 10	> 10	0.0001 to 10
O=S(=O)(NC1CC(O)(c2cc(Cl)cc3cn[nH]c23)C1)c1ccccc1 (stereo not drawn) [Compound P-0044, N-(3-(5-chloro-1H-indazol-7-yl)-3-hydroxycyclobutyl)benzenesulfonamide]	100 to 200	> 10	> 10	10 to 100
O=S(=O)(NC1CC(O)(c2cc(Cl)cc3cn[nH]c23)C1)C1CC1 (stereo not drawn) [Compound P-0045, N-(3-(5-chloro-1H-indazol-7-yl)-3-hydroxycyclobutyl)cyclopropanesulfonamide]	10 to 100	> 10	0.0001 to 10	0.0001 to 10
CC1(C)CC(O)(c2cc(Cl)cc3cn[nH]c23)CCN1S(C)(=O)=O (stereo not drawn) [Compound P-0046, 4-(5-chloro-1H-indazol-7-yl)-2,2-dimethyl-1-(methylsulfonyl)piperidin-4-ol]	0.0001 to 10	> 10	> 10	0.0001 to 10
O=S1(=O)CCC(O)(c2cc(Cl)cc3cn[nH]c23)CC1 [Compound P-0047, 4-(5-chloro-1H-indazol-7-yl)-4-hydroxytetrahydro-2H-thiopyran 1,1-dioxide]	0.0001 to 10	> 10	0.0001 to 10	0.0001 to 10
OC1(c2cc(Cl)cc3cn[nH]c23)CC2(CCCC2)C1 [Compound P-0048, 2-(5-chloro-1H-indazol-7-yl)spiro[3.4]octan-2-ol]	0.0001 to 10	0.0001 to 10	0.0001 to 10	0.0001 to 10
Cc1ccc2cn[nH]c2c1C(O)C1(C(F)(F)F)CCCC1 (stereo not drawn) [Compound P-0049, (6-methyl-1H-indazol-7-yl)(1-(trifluoromethyl)cyclopentyl)methanol]	0.0001 to 10	0.0001 to 10	0.0001 to 10	0.0001 to 10
CC1(C(O)c2cc3c(c4cn[nH]c24)CCCC3)CCCCC1 (stereo not drawn) [Compound P-0050, (1-methylcyclohexyl)(6,7,8,9-tetrahydro-3H-benzo[e]indazol-4-yl)methanol]	0.0001 to 10	0.0001 to 10	> 10	0.0001 to 10
OC1(c2cc(Cl)cc3cn[nH]c23)CC2(CCCCC2)C1 [Compound P-0051, 2-(5-chloro-1H-indazol-7-yl)spiro[3.5]nonan-2-ol]	0.0001 to 10	0.0001 to 10	0.0001 to 10	0.0001 to 10
CC1(C(O)c2c(F)c(Cl)cc3cn[nH]c23)CCCCC1 (stereo not drawn) [Compound P-0052, (5-chloro-6-fluoro-1H-indazol-7-yl)(1-methylcyclohexyl)methanol]	0.0001 to 10	0.0001 to 10	0.0001 to 10	0.0001 to 10
OC(c1cc(Cl)cc2cn[nH]c12)C1(C(F)(F)F)CCCC1 (stereo not drawn) [Compound P-0053, (5-chloro-1H-indazol-7-yl)(1-(trifluoromethyl)cyclopentyl)methanol]	0.0001 to 10	0.0001 to 10	0.0001 to 10	0.0001 to 10
CC1(C(O)c2c3c(cc4cn[nH]c24)CC3)CCCCC1 (stereo not drawn) [Compound P-0054, (5,6-dihydro-1H-cyclobuta[f]indazol-7-yl)(1-methylcyclohexyl)methanol]	0.0001 to 10	0.0001 to 10	> 10	0.0001 to 10
CC1(C(O)c2cc(Cl)c(F)c3cn[nH]c23)CCCCC1 (stereo not drawn) [Compound P-0055, (5-chloro-4-fluoro-1H-indazol-7-yl)(1-methylcyclohexyl)methanol]	0.0001 to 10	0.0001 to 10	0.0001 to 10	0.0001 to 10
OC(c1cccc2cncn12)C1CCCC1 (stereo not drawn) [Compound P-0058, cyclopentyl(imidazo[1,5-a]pyridin-5-yl)methanol]	0.0001 to 10	0.0001 to 10	> 10	0.0001 to 10

Now from value to compound:

IC50 [1] [µM]	IC50 [2] [µM]	IC50 [3] [µM]	IC50 [4] [µM]	Structure (SMILES)
0.0001 to 10	0.0001 to 10	0.0001 to 10	0.0001 to 10	CC(C)(c1ccccc1)C(O)c1cc(Cl)cc2cn[nH]c12 (stereo not drawn) [Compound P-0027, 1-(5-chloro-1H-indazol-7-yl)-2-methyl-2-phenylpropan-1-ol]
0.0001 to 10	0.0001 to 10	0.0001 to 10	0.0001 to 10	OC1(c2cc(Cl)cc3cn[nH]c23)CC2(CCOCC2)C1 [Compound P-0029, 2-(5-chloro-1H-indazol-7-yl)-7-oxaspiro[3.5]nonan-2-ol]
0.0001 to 10	> 10	> 10	0.0001 to 10	Cc1cc(C2(O)CC3(CCC3)C2)c2[nH]ncc2c1 [Compound P-0030, 2-(5-methyl-1H-indazol-7-yl)spiro[3.3]heptan-2-ol]
0.0001 to 10	> 10	> 10	0.0001 to 10	OC1(c2cc(C(F)(F)F)cc3cn[nH]c23)CC2(CCC2)C1 [Compound P-0031, 2-(5-(trifluoromethyl)-1H-indazol-7-yl)spiro[3.3]heptan-2-ol]
0.0001 to 10	0.0001 to 10	0.0001 to 10	0.0001 to 10	CC1(C(O)c2cc(Cl)cc3cn[nH]c23)CCC(F)(F)CC1 (stereo not drawn) [Compound P-0032, (5-chloro-1H-indazol-7-yl)(4,4-difluoro-1-methylcyclohexyl)methanol]
0.0001 to 10	0.0001 to 10	0.0001 to 10	0.0001 to 10	OC(c1cc(Cl)cc2cn[nH]c12)C1(F)CCC(F)(F)CC1 (stereo not drawn) [Compound P-0033, (5-chloro-1H-indazol-7-yl)(1,4,4-trifluorocyclohexyl)methanol]
0.0001 to 10	0.0001 to 10	0.0001 to 10	0.0001 to 10	CS(=O)(=O)N1CCC2(CC1)CC(O)(c1cc(Cl)cc3cn[nH]c13)C2 [Compound P-0034, 2-(5-chloro-1H-indazol-7-yl)-7-(methylsulfonyl)-7-azaspiro[3.5]nonan-2-ol]
0.0001 to 10	> 10	0.0001 to 10	0.0001 to 10	O=S(=O)(C1CC1)N1CCC2(CC1)CC(O)(c1cc(Cl)cc3cn[nH]c13)C2 [Compound P-0035, 2-(5-chloro-1H-indazol-7-yl)-7-(cyclopropylsulfonyl)-7-azaspiro[3.5]nonan-2-ol]
0.0001 to 10	0.0001 to 10	> 10	0.0001 to 10	OC1(c2c(Cl)c(Cl)cc3cn[nH]c23)CC2(CCC2)C1 [Compound P-0036, 2-(5,6-dichloro-1H-indazol-7-yl)spiro[3.3]heptan-2-ol]
0.0001 to 10	0.0001 to 10	> 10	0.0001 to 10	Cc1ccc2cn[nH]c2c1C(O)C12CC3CC(CC(C3)C1)C2 (stereo not drawn) [Compound P-0037, ((ls,3s)-adamantan-1-yl)(6-methyl-1H-indazol-7-yl)methanol]
0.0001 to 10	> 10	0.0001 to 10	0.0001 to 10	CS(=O)(=O)NC1CC(O)(c2cc(Cl)cc3cn[nH]c23)C1 (stereo not drawn) [Compound P-0038, N-(3-(5-chloro-1H-indazol-7-yl)-3-hydroxycyclobutyl)methanesulfonamide]
0.0001 to 10	0.0001 to 10	0.0001 to 10	0.0001 to 10	OC1(c2cc(Cl)cc3cn[nH]c23)CC2(COC2)C1 [Compound P-0039, 6-(5-chloro-1H-indazol-7-yl)-2-oxaspiro[3.3]heptan-6-ol]
0.0001 to 10	0.0001 to 10	0.0001 to 10	0.0001 to 10	OC1(c2cc(Cl)cc3cn[nH]c23)CC2(CSC2)C1 [Compound P-0040, 6-(5-chloro-1H-indazol-7-yl)-2-thiaspiro[3.3]heptan-6-ol]
